The source of these data is patent publication US12559474B2, “Triazine derivatives having virus replication inhibitory activity and pharmaceutical composition comprising the same” (priority 2021, dated 2026).

Each structure is given as a SMILES string. Several values for one entry are separate records, joined by “and”; a condition that tells them apart may be missing. Identical values can stand only once. Where only a bound is given, the exact number is not on record here.

What is called IC50 is the concentration that inhibits the measured activity by half.

The first assay deals with SARS-CoV-2 3CL protease (Severe acute respiratory syndrome coronavirus 2, UniProt P0DTD1). The assay can be described thus: biochemical. Conditions: 50% SARS-CoV-2 3CL protease inhibitory concentration, given as class symbols; read-out: IC50.
As for `Cn1cnc(Cn2c(=O)nc(Nc3cc4cn(CC5(N)CC5)nc4cc3Cl)n(Cc3cc(Cl)c(F)cc3F)c2=O)n1` [II-0557], the half-maximal inhibitory concentration (IC50) was under 100 nM.

The same assay, now with this note: 50% SARS-CoV-2 3CL protease inhibitory concentration; RapidFire MS; read-out: IC50.
For the compound `Cc1cncc(-n2c(=O)nc(Nc3cc4cn(C)nc4cc3Cl)n(C[C@@H]3CCCN3)c2=O)c1` [II-0085], the IC50 came out at 9200 nM.

The same assay, now with this note: IC50.
As for `CS(=O)(=O)CCCn1cc2cc(Nc3nc(=O)n(Cc4ccc[nH]c4=O)c(=O)n3Cc3cc(F)c(F)c(F)c3)c(Cl)cc2n1` [Compound I-0287], the IC50 is under 100 nM.
Take `COc1ccc(Nc2nc(=O)n(Cc3c[nH]ccc3=O)c(=O)n2Cc2cc(F)c(F)c(F)c2)cc1` [Compound I-0083]: the IC50 was 1800 nM and 1000 to 10000 nM.
Same read-out and setting: under `Cn1cc2cc(Nc3nc(=O)n(Cc4c[nH]c(=O)[nH]c4=O)c(=O)n3Cc3cc(F)c(F)c(F)c3)c(Cl)cc2n1` [Compound I-0405] stands under 100 nM; under `O=c1[nH]cccc1Cn1c(=O)nc(Nc2ccc(O)cc2)n(Cc2cc(F)c(F)c(F)c2)c1=O` [Compound I-0027], under 100 nM; under `COc1ccc(Nc2nc(=O)n(Cc3cc(-c4cn(C)cn4)c[nH]c3=O)c(=O)n2Cc2cc(F)c(F)c(F)c2)cc1` [Compound I-0105], under 100 nM.
On to `Cc1cncc(-n2c(=O)nc(Nc3cc4cn([C@H]5CC[C@H](N)CC5)nc4cc3Cl)n(Cc3cc(Cl)ccc3Cl)c2=O)c1` [II-0628], for which the IC50 was under 100 nM.
Still for that read-out and setting: with `O=c1[nH]cccc1Cn1c(=O)nc(Nc2ccc(-c3cocn3)cc2Cl)n(Cc2cc(F)c(F)c(F)c2)c1=O` [Compound I-0396] the figure was 3100 nM and 1000 to 10000 nM; with `Cn1cnc(Cn2c(=O)nc(Nc3cc4cn(CC(F)F)nc4cc3F)n(Cc3ccc(F)c(C#N)c3)c2=O)n1` [II-0471], under 100 nM.
Still for that read-out and setting: under `CC(=O)NCCn1cc2cc(Nc3nc(=O)n(Cc4ccccn4)c(=O)n3Cc3cc(F)c(F)cc3F)c(Cl)cc2n1` [II-0248] stands under 100 nM.
`Cn1cnc(Cn2c(=O)nc(NC34CC(Nc5ncc(C(F)(F)F)cn5)(C3)C4)n(Cc3cc(F)c(F)c(F)c3)c2=O)n1` [II-0470]: the IC50 was under 100 nM.
The compound `Cc1cncc(-n2c(=O)nc(Nc3cc4cn(C)nc4cc3Cl)n(C[C@@H]3CCCN3C(=O)CNC(=O)C(F)(F)F)c2=O)c1` [II-0086] registered a half-maximal inhibitory concentration (IC50) of 3400 nM.
With `COc1ncc(Nc2nc(=O)n(-c3cncc(C)c3)c(=O)n2Cc2ccc(F)c(C#N)c2)c(C)n1` [II-0124], half-maximal inhibition (IC50) was put at 3300 nM.
Still for that read-out and setting: with `CN(C)C(=O)c1cnc2[nH]c(=O)c(Cn3c(=O)nc(Nc4ccc5c(c4)CCO5)n(Cc4cc(F)c(F)c(F)c4)c3=O)cc2c1` [II-0315] the figure was under 100 nM; with `COCCOc1ccc(Nc2nc(=O)n(Cc3ccc[nH]c3=O)c(=O)n2Cc2cc(F)c(F)c(F)c2)c(Cl)c1` [Compound I-0096], under 100 nM; with `COc1ccc(Nc2nc(=O)n(Cc3cn(-c4ccccc4)cn3)c(=O)n2Cc2cc(F)c(F)c(F)c2)cc1` [Compound I-0412], 5100 nM and 1000 to 10000 nM.
Still for that read-out and setting: under `CN(C(=O)Cn1cc2cc(Nc3nc(=O)n(Cc4ncn(C)n4)c(=O)n3Cc3cc(F)c(F)c(Cl)c3)c(Cl)cc2n1)C1CC1` [II-0155] stands under 100 nM.
Still for that read-out and setting: with `CC(=O)Nc1nc2cc(Cl)c(Nc3nc(=O)n(Cc4ncn(C)n4)c(=O)n3Cc3ccc(F)c(C#N)c3)cc2s1` [II-0083] the figure was under 100 nM; with `Cc1nc2cc(Cl)c(Nc3nc(=O)n(Cc4ccc[nH]c4=O)c(=O)n3Cc3cc(F)c(F)cc3F)cc2n1C` [Compound I-0006], under 100 nM; with `Cc1cc(Oc2ccc(Nc3nc(=O)n(Cc4ccc[nH]c4=O)c(=O)n3Cc3cc(F)c(F)c(F)c3)cc2)no1` [Compound I-0048], 440 nM and 100 to 1000 nM.
In the case of `CNc1nc2cc(Cl)c(Nc3nc(=O)n(Cc4ncn(C)n4)c(=O)n3Cc3cc(Cl)c(F)cn3)cc2s1` [II-0266], the half-maximal inhibitory concentration (IC50) is under 100 nM.
On the same count and under the same terms, with `Cn1cnc(Cn2c(=O)nc(Nc3cc4cn(CCS(C)(=O)=O)nc4cc3Cl)n(Cc3cc(Cl)c(F)cc3F)c2=O)n1` [II-0033] the figure was under 100 nM; with `Cc1cncc(-n2c(=O)nc(Nc3ccc(N=S(C)(C)=O)cc3Cl)n(Cc3ccc(F)c(C#N)c3)c2=O)c1` [II-0575], under 100 nM.
